The target of one assay is T1, Human δ-opioid (DOP) (Homo sapiens, UniProt P41143).
T1 construct: purchased Perkin Elmer Biosignal
Nature of the assay: Radioligand binding, human δ-opioid (DOP) membranes, FlashPlate, [3H]-Bremazocine. Conditions: compound at 10 μM; [3H]-Bremazocine. The procedure, abridged: (§1)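 Cloned human receptor membranes were coated onto FlashPlate wells and incubated with radioligand and compound (added from a 0.5 mM DMSO daughter plate) for 1 hour at room temperature in the dark. Scintillation counting gave percent inhibition, with DMSO defining total and reference ligand defining non-specific binding.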

The next assay deals with T2, Human κ-Opioid (KOP) (Homo sapiens, UniProt P41145).
T2 construct: purchased Perkin Elmer Biosignal
T2 sequence (P41145 whole entry): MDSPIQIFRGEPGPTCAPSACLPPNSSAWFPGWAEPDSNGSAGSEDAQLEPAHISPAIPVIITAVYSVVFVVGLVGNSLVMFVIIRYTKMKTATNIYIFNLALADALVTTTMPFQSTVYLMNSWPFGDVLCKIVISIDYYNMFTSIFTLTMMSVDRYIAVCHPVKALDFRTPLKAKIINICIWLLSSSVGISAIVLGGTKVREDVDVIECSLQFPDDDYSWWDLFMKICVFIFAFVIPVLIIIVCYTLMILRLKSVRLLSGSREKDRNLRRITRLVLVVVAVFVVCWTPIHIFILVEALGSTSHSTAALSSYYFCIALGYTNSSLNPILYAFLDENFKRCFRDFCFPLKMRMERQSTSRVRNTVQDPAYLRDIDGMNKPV
Nature of the assay: Radioligand binding, human κ-opioid (KOP) membranes, filtration, [3H]-Diprenorphine. The conditions noted are these: compound at 10 μM; [3H]-Diprenorphine. The method, boiled down:
(§2)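 Membranes from cloned human receptors were incubated with compound and radioligand for 1 hour at room temperature. Bound ligand was collected on 0.3% PEI-soaked filters, washed with cold 50 mM Tris-HCl pH 7.4, and counted by scintillation. Percent inhibition was computed against DMSO totals and reference-ligand nonspecific wells.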

In another assay the target is T3, Mouse urotensin (mUR2) (Mus musculus, UniProt Q8VIH9).
T3 construct: purchased Perkin Elmer Biosignal
T3 sequence (Q8VIH9 1-385): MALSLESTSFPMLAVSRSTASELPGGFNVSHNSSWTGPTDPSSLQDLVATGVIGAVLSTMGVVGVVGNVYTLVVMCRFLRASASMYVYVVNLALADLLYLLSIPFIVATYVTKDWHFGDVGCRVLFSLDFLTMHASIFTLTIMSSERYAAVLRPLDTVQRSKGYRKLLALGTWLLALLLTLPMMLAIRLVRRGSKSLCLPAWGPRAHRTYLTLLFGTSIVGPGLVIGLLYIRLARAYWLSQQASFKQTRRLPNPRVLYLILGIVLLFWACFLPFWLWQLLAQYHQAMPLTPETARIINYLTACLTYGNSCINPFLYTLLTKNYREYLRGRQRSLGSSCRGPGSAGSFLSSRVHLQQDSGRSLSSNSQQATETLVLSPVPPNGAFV
Nature of the assay: Radioligand binding, mouse urotensin mUR2 membranes, FlashPlate, [125I]-Urotensin II. The conditions noted are these: compound at 10 μM; [125I]-Urotensin II. The procedure, abridged: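 Cloned mouse urotensin (mUR2) receptor membranes from Perkin Elmer Biosignal were immobilized in FlashPlate microplates using a proprietary coating. Each well got 19.5 μl buffer, then 0.5 μl of DMSO, reference ligand, or compound. Adding 5 μl of [125I]-Urotensin II, diluted to 5× final concentration in binding buffer, started binding. Plates were sealed with TopSeal-A and incubated 1 hour at room temperature in the dark. Wells were counted for 30 seconds each on a TopCount after a 60-second delay, and percentage inhibition was calculated.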

The next assay deals with T4, Human melanocortin (MC5) (Homo sapiens, UniProt P33032).
T4 construct: purchased Perkin Elmer Biosignal
T4 sequence (P33032 whole entry): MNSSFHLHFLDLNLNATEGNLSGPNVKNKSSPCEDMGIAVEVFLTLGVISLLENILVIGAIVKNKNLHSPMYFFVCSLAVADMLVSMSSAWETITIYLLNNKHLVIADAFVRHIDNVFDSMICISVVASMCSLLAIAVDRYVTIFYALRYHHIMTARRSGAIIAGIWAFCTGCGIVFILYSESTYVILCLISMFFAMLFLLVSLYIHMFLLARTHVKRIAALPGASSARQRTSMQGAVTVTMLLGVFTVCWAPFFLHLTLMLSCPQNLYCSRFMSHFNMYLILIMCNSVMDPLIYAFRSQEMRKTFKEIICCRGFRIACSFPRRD
Nature of the assay: Radioligand binding, human melanocortin MC5 membranes, FlashPlate, [125I]-NDP-αMSH. Conditions: compound at 10 μM, [125I]-NDP-αMSH. The method, boiled down: as §1

In assay [1] the target is T5, Human melanin-concentrating hormone (MCH1) (Homo sapiens, UniProt Q99705).
T5 construct: purchased Perkin Elmer Biosignal
T5 sequence (Q99705 whole entry): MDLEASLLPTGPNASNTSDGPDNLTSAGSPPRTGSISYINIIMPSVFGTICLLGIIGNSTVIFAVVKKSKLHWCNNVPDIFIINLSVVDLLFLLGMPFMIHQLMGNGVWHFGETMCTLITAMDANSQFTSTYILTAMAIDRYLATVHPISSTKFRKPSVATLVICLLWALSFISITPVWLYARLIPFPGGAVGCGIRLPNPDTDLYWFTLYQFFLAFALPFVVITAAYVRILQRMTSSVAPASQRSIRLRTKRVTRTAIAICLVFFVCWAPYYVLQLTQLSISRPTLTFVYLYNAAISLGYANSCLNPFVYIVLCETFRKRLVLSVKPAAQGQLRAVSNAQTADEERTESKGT
Nature of the assay: Radioligand binding, human melanin-concentrating hormone MCH1 membranes, FlashPlate, [125I]-S36057. Conditions: compound at 10 μM; [125I]-S36057. The procedure, abridged: as §1

The target in the next assay is T6, Human neurokinin (NK1) (Homo sapiens, UniProt P25103).
T6 construct: purchased Perkin Elmer Biosignal
T6 sequence (P25103 whole entry): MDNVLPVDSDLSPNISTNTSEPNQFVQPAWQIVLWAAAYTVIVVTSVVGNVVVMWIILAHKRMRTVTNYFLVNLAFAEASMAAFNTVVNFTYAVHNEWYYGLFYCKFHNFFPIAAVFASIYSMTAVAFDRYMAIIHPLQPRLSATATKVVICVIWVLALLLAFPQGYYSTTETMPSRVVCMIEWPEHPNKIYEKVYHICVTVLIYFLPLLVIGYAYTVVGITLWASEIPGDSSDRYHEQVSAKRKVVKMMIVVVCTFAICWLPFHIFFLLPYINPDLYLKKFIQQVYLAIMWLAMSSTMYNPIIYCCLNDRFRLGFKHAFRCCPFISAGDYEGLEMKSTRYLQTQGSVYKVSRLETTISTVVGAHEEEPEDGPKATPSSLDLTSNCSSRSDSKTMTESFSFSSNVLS
Nature of the assay: Radioligand binding, human neurokinin NK1 membranes, filtration, [125I]-Substance P. The conditions noted are these: compound at 10 μM; [125I]-Substance P. The procedure, abridged: as §2

In another assay the target is T7, Human Melanocortin (MC3) (Homo sapiens, UniProt P41968).
T7 construct: purchased Perkin Elmer Biosignal
T7 sequence (P41968 whole entry): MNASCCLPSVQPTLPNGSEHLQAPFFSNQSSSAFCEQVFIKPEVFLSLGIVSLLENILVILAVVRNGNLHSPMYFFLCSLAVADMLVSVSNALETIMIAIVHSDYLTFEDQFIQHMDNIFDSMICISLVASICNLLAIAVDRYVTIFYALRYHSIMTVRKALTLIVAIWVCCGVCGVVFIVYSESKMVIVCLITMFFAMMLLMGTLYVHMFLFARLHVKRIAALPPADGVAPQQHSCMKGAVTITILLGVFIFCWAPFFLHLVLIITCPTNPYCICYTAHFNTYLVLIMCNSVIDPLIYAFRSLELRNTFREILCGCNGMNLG
Nature of the assay: Radioligand binding, human melanocortin MC3 membranes, FlashPlate, [125I]-NDP-αMSH. Conditions: compound at 10 μM; [125I]-NDP-αMSH. The method, boiled down: as §1

The next assay has as its target T8, Human Melanocortin (MC4) (Homo sapiens, UniProt P32245).
T8 construct: purchased Perkin Elmer Biosignal
The assay can be described thus: Radioligand binding, human melanocortin MC4 membranes, FlashPlate, [125I]-NDP-αMSH. Conditions: compound at 10 μM; [125I]-NDP-αMSH. The procedure, abridged:
as §1

For assay [2], the target named is T9, Human neuropeptide Y (NPY-Y1) (Homo sapiens, UniProt P25929).
T9 construct: purchased Perkin Elmer Biosignal
T9 sequence (P25929 1-384): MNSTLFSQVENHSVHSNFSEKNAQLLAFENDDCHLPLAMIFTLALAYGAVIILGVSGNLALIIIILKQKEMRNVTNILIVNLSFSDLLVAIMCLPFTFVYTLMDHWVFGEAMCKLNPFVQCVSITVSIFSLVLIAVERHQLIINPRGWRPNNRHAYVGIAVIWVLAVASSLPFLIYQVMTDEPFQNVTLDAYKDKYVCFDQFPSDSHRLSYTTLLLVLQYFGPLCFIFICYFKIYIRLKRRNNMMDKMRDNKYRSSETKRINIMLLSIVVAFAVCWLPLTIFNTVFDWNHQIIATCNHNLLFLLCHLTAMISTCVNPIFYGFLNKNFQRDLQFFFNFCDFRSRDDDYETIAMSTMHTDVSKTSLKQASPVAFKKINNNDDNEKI
The assay can be described thus: Radioligand binding, human neuropeptide Y NPY-Y1 membranes, FlashPlate, [125I]-PYY. The conditions noted are these: compound at 10 μM; [125I]-PYY. The procedure, abridged:
as §1

Another assay concerns the target T10, Human opioid (ORL1) (Homo sapiens, UniProt P41146).
T10 construct: purchased Perkin Elmer Biosignal
Nature of the assay: Radioligand binding, human opioid ORL1 membranes, FlashPlate, [125I]-Nociceptin. Conditions: compound at 10 μM; [125I]-Nociceptin; 10 µM. The procedure, abridged: as §1

The target of a further assay is T11, Human μ-opioid (MOP) (Homo sapiens, UniProt P35372).
T11 construct: purchased Perkin Elmer Biosignal
T11 sequence (P35372 whole entry): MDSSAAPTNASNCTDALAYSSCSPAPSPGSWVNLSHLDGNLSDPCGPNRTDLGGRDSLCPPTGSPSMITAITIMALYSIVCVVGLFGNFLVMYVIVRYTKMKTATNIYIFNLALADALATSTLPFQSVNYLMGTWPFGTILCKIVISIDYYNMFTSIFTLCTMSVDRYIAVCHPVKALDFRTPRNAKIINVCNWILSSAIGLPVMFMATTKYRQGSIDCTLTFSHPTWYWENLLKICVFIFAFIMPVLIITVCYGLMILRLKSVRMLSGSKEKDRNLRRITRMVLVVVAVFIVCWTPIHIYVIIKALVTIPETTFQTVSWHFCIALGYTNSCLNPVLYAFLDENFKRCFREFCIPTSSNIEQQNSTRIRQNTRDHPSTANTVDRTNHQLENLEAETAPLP
Nature of the assay: Radioligand binding, human μ-opioid (MOP) membranes, FlashPlate, [3H]-Naloxone. The conditions noted are these: compound at 10 μM, [3H]-Naloxone. The method, boiled down:
as §1

T1 sequence (P41143 whole entry): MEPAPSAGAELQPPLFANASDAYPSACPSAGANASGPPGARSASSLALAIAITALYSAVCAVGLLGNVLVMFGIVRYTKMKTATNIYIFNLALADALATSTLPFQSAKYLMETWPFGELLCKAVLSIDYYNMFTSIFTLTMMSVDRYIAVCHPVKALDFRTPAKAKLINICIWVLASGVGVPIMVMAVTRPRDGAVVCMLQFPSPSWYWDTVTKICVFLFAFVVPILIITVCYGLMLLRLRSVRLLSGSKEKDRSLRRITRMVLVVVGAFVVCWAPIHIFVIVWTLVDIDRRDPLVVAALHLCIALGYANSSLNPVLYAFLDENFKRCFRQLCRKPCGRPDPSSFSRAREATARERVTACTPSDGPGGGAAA
T10 sequence (P41146 whole entry): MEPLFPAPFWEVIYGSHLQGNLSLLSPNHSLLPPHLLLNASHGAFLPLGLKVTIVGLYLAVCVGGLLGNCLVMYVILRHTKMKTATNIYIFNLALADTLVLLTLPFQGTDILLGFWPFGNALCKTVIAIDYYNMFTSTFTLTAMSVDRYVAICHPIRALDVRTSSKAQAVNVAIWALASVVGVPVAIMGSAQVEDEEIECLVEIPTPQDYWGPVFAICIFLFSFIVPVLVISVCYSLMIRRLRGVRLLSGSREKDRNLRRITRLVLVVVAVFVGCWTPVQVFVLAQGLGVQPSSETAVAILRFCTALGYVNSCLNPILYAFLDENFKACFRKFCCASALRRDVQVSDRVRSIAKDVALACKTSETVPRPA
T8 sequence (P32245 whole entry): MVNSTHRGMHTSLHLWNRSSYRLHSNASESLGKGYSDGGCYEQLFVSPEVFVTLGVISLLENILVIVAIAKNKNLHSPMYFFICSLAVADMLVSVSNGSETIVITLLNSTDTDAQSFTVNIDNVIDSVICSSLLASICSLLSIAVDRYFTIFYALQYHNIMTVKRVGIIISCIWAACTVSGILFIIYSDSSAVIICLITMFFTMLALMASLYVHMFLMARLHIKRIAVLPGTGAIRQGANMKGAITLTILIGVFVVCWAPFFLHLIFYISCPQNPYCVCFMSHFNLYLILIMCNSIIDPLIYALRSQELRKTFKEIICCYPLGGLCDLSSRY

As to `NCCCC(=O)NC1C(OCc2ccc(Cl)cc2)OC(COCc2ccccc2)C(O)C1OCc1ccccc1` (single isomer, unassigned) [compound 503], on Human δ-opioid (DOP), the “A1: inhibition of radioligand binding, human δ-opioid (DOP)” value (shortened to “A1: inhibition … human δ-opioid (DOP)”) was “− (“−” indicates less than 50% inhibition at 10 μM)”. The “A2: inhibition of radioligand binding, human κ-opioid (KOP)” value (shortened to “A2: inhibition of radioligand binding”) on Human κ-Opioid (KOP) is listed as “− (“−” indicates less than 50% inhibition at 10 μM)”. In addition, the “A11: inhibition of radioligand binding, mouse urotensin (mUR2)” value (shortened to “A11: inhibition of radioligand binding”) on Mouse urotensin (mUR2) was “− (“−” indicates less than 50% inhibition at 10 μM)”. The “A5: inhibition of radioligand binding, human melanocortin (MC5)” value (“A5: inhibition of radioligand binding” below) on Human melanocortin (MC5) (10 µM) is “+ (“+” indicates greater than 50% inhibition at 10 μM)”. In addition, in [1], the “A6: inhibition of radioligand binding, human melanin-concentrating hormone (MCH1)” value (“A6: inhibition of radioligand binding” for short) is on record as “− (“−” indicates less than 50% inhibition at 10 μM)”. Besides, the “A8: inhibition of radioligand binding, human neurokinin (NK1)” value (from here on “A8: inhibition of radioligand binding”) on Human neurokinin (NK1) is “+ (“+” indicates greater than 50% inhibition at 10 μM)”. For the same compound, the “A3: inhibition of radioligand binding, human melanocortin (MC3)” value (from here on “A3: inhibition of radioligand binding”) on Human Melanocortin (MC3) was “− (“−” indicates less than 50% inhibition at 10 μM)”. Also, at Human Melanocortin (MC4), the “A4: inhibition of radioligand binding, human melanocortin (MC4)” value (from here on “A4: inhibition of radioligand binding”) is on record as “− (“−” indicates less than 50% inhibition at 10 μM)”. Also, in assay [2], the “A9: inhibition of radioligand binding, human neuropeptide Y (NPY-Y1)” value (from here on “A9: inhibition of radioligand binding”) is on record as “− (“−” indicates less than 50% inhibition at 10 μM)”. In addition, on Human opioid (ORL1), the “A10: inhibition of radioligand binding, human opioid (ORL1)” value (“A10: inhibition of radioligand binding” below) was “− (“−” indicates less than 50% inhibition at 10 μM)”. Moreover, the “A7: inhibition of radioligand binding, human μ-opioid (MOP)” value (“A7: inhibition of radioligand binding” below) on Human μ-opioid (MOP) is on record as “− (“−” indicates less than 50% inhibition at 10 μM)”.

In the case of `NCCCC(=O)NC1C(OCc2ccc(Cl)cc2)OC(COCc2ccccc2)C(O)C1OCc1ccccc1` (single isomer, unassigned) [compound 504], the “A1: inhibition … human δ-opioid (DOP)” value at Human δ-opioid (DOP) was “− (“−” indicates less than 50% inhibition at 10 μM)”. Also, the “A2: inhibition of radioligand binding” value at Human κ-Opioid (KOP) is “− (“−” indicates less than 50% inhibition at 10 μM)”. In addition, on Mouse urotensin (mUR2), the “A11: inhibition of radioligand binding” value is “− (“−” indicates less than 50% inhibition at 10 μM)”. The “A5: inhibition of radioligand binding” value at Human melanocortin (MC5) (10 µM) was “− (“−” indicates less than 50% inhibition at 10 μM)”. In addition, the “A6: inhibition of radioligand binding” value in [1] is “− (“−” indicates less than 50% inhibition at 10 μM)”. Further, the “A8: inhibition of radioligand binding” value at Human neurokinin (NK1) is recorded as “+ (“+” indicates greater than 50% inhibition at 10 μM)”. Besides, the “A3: inhibition of radioligand binding” value on Human Melanocortin (MC3) is “− (“−” indicates less than 50% inhibition at 10 μM)”. Further, on Human Melanocortin (MC4), the “A4: inhibition of radioligand binding” value is reported as “− (“−” indicates less than 50% inhibition at 10 μM)”. Besides, the “A9: inhibition of radioligand binding” value in assay [2] is “− (“−” indicates less than 50% inhibition at 10 μM)”. For the same compound, the “A10: inhibition of radioligand binding” value at Human opioid (ORL1) is “+ (“+” indicates greater than 50% inhibition at 10 μM)”. The “A7: inhibition of radioligand binding” value on Human μ-opioid (MOP) is on record as “− (“−” indicates less than 50% inhibition at 10 μM)”.

In the case of `NCCCC(=O)NC1C(OCc2ccc(Cl)cc2)OC(COCc2ccc(Cl)cc2)C(O)C1OCc1ccccc1` (single isomer, unassigned) [compound 505], the “A1: inhibition … human δ-opioid (DOP)” value at Human δ-opioid (DOP) is “− (“−” indicates less than 50% inhibition at 10 μM)”. Moreover, on Human κ-Opioid (KOP), the “A2: inhibition of radioligand binding” value is listed as “− (“−” indicates less than 50% inhibition at 10 μM)”. The “A11: inhibition of radioligand binding” value at Mouse urotensin (mUR2) is reported as “− (“−” indicates less than 50% inhibition at 10 μM)”. Besides, the “A5: inhibition of radioligand binding” value on Human melanocortin (MC5) was “+ (“+” indicates greater than 50% inhibition at 10 μM)”. Also, in [1], the “A6: inhibition of radioligand binding” value is listed as “− (“−” indicates less than 50% inhibition at 10 μM)”. In addition, on Human neurokinin (NK1), the “A8: inhibition of radioligand binding” value is given as “+ (“+” indicates greater than 50% inhibition at 10 μM)”. Further, at Human Melanocortin (MC3), the “A3: inhibition of radioligand binding” value is “− (“−” indicates less than 50% inhibition at 10 μM)”. Further, the “A4: inhibition of radioligand binding” value at Human Melanocortin (MC4) is reported as “− (“−” indicates less than 50% inhibition at 10 μM)”. For the same compound, the “A9: inhibition of radioligand binding” value in assay [2] is given as “− (“−” indicates less than 50% inhibition at 10 μM)”. In addition, the “A10: inhibition of radioligand binding” value on Human opioid (ORL1) is “− (“−” indicates less than 50% inhibition at 10 μM)”. In addition, at Human μ-opioid (MOP) (10 µM), the “A7: inhibition of radioligand binding” value was “+ (“+” indicates greater than 50% inhibition at 10 μM)”.
